Assay results: patent publication US11953435B2, “Zinc-responsive fluorophores” (Northwestern University, priority 2019, dated 2024)
Several values for one entry are separate records, joined by “and”; a condition that tells them apart may be missing. Equal entries are not always repeated.

Assay: Photophysical properties in aqueous buffer (UV-visible, fluorescence, quantum yield, extinction coefficient)
Type: physicochemical
Conditions: for λAbs (max) / λEm (max): aqueous buffer pH 7.2; for Extinction Coefficient (ε) / Quantum Yield (Φ): 50 nM to 250 nM probe; for fluorescence turn-on in the presence of zinc: aqueous buffered solutions; for turn-on ratio / increase in brightness in response to zinc: holo vs apo
Method: Aqueous solutions were prepared by using de-ionized water with resistivity […], obtained using a Milli-Q water purification system. In order to properly compare the photophysical properties of ZincBY-2, ZincBY-3, and ZincBY-4 to ZincBY-1, the photophysical properties of ZincBY-1 we remeasured. […] Stock solutions of ZincBY-1, ZincBY-2, ZincBY-3, and ZincBY-4 were prepared at concentrations of 5 mM and stored at −20° C. in aliquots that were used immediately after thawing for each experiment. Unless otherwise stated, all spectroscopic methods were conducted in aqueous buffer containing 50 mM HEPES (pH 7.2) and 0.1 M KNO3. UV-visible spectra were acquired on a PerkinElmer Lambda 650 UV/Vis spectrophotometer using quartz cuvettes from Starna (1 cm path length, 10 cm path length used in extinction coefficient and quantum yield determination). Fluorescence spectra were acquired using a PerkinElmer LS 55 fluorescence spectrophotometer. For measurements containing zinc, 99.0% ZnNO3 hexahydrate (final concentration 5 μM) was used. For experiments analyzing apo probes, N,N,N′,N′-Tetrakis(2-pyridylmethyl)ethylenediamine (TPEN) (final concentration 5 μM) was added to solution. Quantum Yield and Extinction Coefficient Determination. Quantum yields for apo and holo ZincBY-1, ZincBY-2, ZincBY-3, and ZincBY-4 were determined by plotting absorbance vs. fluorescence intensity of solutions containing ZincBY-1, ZincBY-2, ZincBY-3, or ZincBY-4 at probe concentrations ranging from 50-250 nM. Serial dilution was used to make solutions at different concentrations. Fluorescein dissolved in 0.1 N NaOH was used as the quantum yield standard, using a literature-determined quantum yield of 0.95.^3 For all fluorophore solutions, fluorescence excitation was set at 490 nm and fluorescence emission was integrated from 510 nm to 650 nm. Zinc Dissociation Constant. Fluorescence spectra were recorded using zinc probes (ZincBY-1, ZincBY-2, ZincBY-3, or ZincBY-4; 200 nM) and ZnSO4 (various concentrations). The solutions were equilibrated in the dark for 1 h prior to measurement. The concentration of ZnSO4 was varied from 1 μM to 9 mM in buffer solution (50 mM HEPES and 0.1 M KNO3, and pH 7.2) containing 10 mM EGTA. Free Zn^2+ was calculated according to a previously reported method (Ref. B4; incorporated by reference in its entirety). Data was fit to the following one-site binding equation: F=(FminKd+Fmax[Zn^2+])/(Kd+[Zn^2+]) pH Response. The fluorescence spectra of zinc probes (ZincBY-2, ZincBY-3, or ZincBY-4; 200 nM) wasere measured at various pH values (4.5-11). The following buffers were used at 50 mM concentration with 0.1 M KNO3: NaOAc/AcOH (pH 4.0-4.5), MES (pH 5.0-6.5), HEPES (pH 7.0-8.0), CHES (pH 8.5-9.5), CAPS (pH 10.0-11.0). Metal Ion Response. The fluorescence spectra of zinc probes (ZincBY-2, ZincBY-3, or ZincBY-4; 200 nM) were measured in the presence an excess of metal ion including 1 mM KNO3, 1 mM NaNO3, 1 mM CaSO4, 1 mM MgSO4, 15 μM MnSO4, 15 μM (NH4)2Fe(SO4)2, 15 μM NH4Fe(SO4)2, 15 μM CoSO4, 15 μM NiSO4, 15 μM CuSO4, 15 μM [Cu(CH3CN)4]PF6, 15 μM CdSO4, 15 μM Hg(NO3)2, 15 μM Pb(NO3)2, or 15 μM ZnSO4. The fluorescence spectra were compared to that of ZincBY-2 (200 nM), ZincBY-3 (200 nM), or ZincBY-4 (200 nM) in the presence of 10 μM TPEN. Determination of octanol-water partition coefficients (log P). A log P value for each probe was determined by agitating nanomolar solutions of each probe in a 1:1 mixture of HEPES buffer and 1-octanol. Solutions were allowed to settle for 1 h and then the fluorescence intensity of each phase was measured. Standard curves of the fluorescence of known concentrations of probes in both solutions were used to determine concentrations.

[1] = remeasured, same as originally reported, state not specified

| higher brightness on remeasurement compared to the originally reported values (both apo and holo states) [fold] | absorption wavelength [1] [nm] | emission wavelength [1] [nm] | SMILES | Brightness (ε*Φ/1000) (Apo) | λAbs (max) (Apo (TPEN)) [nm] | Extinction Coefficient (ε) (Apo) | Quantum Yield (Φ) (Apo) | λEm (max) (Apo) [nm] | Brightness (ε*Φ/1000) (Zn-bound) | Extinction Coefficient (ε) (Zn-bound) | Quantum Yield (Φ) (Zn-bound) | λAbs (max) (Zn-bound) [nm] | λEm (max) (Zn-bound) [nm] | fluorescence turn-on in the presence of zinc | turn-on ratio / increase in brightness in response to zinc | absorption peaks (apo form) | quantum yield lower compared to ZincBY-1 (apo form) [%] | quantum yield lower compared to ZincBY-1 (holo form) [%] |
| --- | --- | --- | --- | --- | --- | --- | --- | --- | --- | --- | --- | --- | --- | --- | --- | --- | --- | --- |
| 10 | 533 | 543 | COc1ccc2n1[B-](F)(F)[N+]1=C(N(CCN(Cc3ccccn3)Cc3ccccn3)Cc3ccccn3)C=CC1=C2c1c(C)cc(C)cc1C [ZincBY-1, reference compound] | 5.21(72) M^−1cm^−1 | 529 | 2.42(33) × 10^4 M^−1cm^−1 | 0.215(5) | 559 | 26.97(2.30) M^−1cm^−1 | 4.14(33) × 10^4 M^−1cm^−1 | 0.651(18) and 0.651(2) | 532 | 543 | 5.2 | ca. 5 fold |  |  |  |
|  |  |  | Cc1cc(C)c(C2=C3C=CC(OCCN=[N+]=[N-])=[N+]3[B-](F)(F)n3c2ccc3N(CCN(Cc2ccccn2)Cc2ccccn2)Cc2ccccn2)c(C)c1 [ZincBY-2, N1-(7-(2-azidoethoxy)-5,5-difluoro-10-mesityl-5H-4λ4,5λ4-dipyrrolo[1,2-c:2′,1′-f][1,3,2]diazaborinin-3-yl)-N1,N2,N2-tris(pyridin-2-ylmethyl)ethane-1,2-diamine] | 2.35(58) M^−1cm^−1 | 532 | 1.42(35) × 10^4 M^−1cm^−1 | 0.164(7) | 566 | 13.58(1.93) M^−1cm^−1 | 2.57(35) × 10^4 M^−1cm^−1 | 0.529(22) | 532 | 552 |  |  |  |  |  |
|  |  |  | Cc1cc(C)c(C2=C3C=CC(OCCN)=[N+]3[B-](F)(F)n3c2ccc3N(CCN(Cc2ccccn2)Cc2ccccn2)Cc2ccccn2)c(C)c1 [ZincBY-3, N1-(7-(2-aminoethoxy)-5,5-difluoro-10-mesityl-5H-4λ4,5λ4-dipyrrolo[1,2-c:2′,1′-f][1,3,2]diazaborinin-3-yl)-N1,N2,N2-tris(pyridin-2-ylmethyl)ethane-1,2-diamine] | 1.85(8) M^−1cm^−1 | 571 | 1.16(4) × 10^4 M^−1cm^−1 | 0.158(3) | 585 | 12.42(36) M^−1cm^−1 | 2.21(5) × 10^4 M^−1cm^−1 | 0.562(11) | 482 | 537 |  |  |  |  |  |
|  |  |  | CC(=O)NCCOc1ccc2n1[B-](F)(F)[N+]1=C(N(CCN(Cc3ccccn3)Cc3ccccn3)Cc3ccccn3)C=CC1=C2c1c(C)cc(C)cc1C [ZincBY-4, N-(2-((7-((2-(bis(pyridin-2-ylmethyl)amino)ethyl)(pyridin-2-ylmethyl)amino)-5,5-difluoro-10-mesityl-5H-5λ4,6λ4-dipyrrolo[1,2-c:2′,1′-f][1,3,2]diazaborinin-3-yl)oxy)ethyl)acetamide] | 1.44(7) M^−1cm^−1 | 572 | 0.88(4) × 10^4 M^−1cm^−1 |  | 585 | 12.15(34) M^−1cm^−1 | 2.12(4) × 10^4 M^−1cm^−1 |  | 482 | 537 | 8.4 | 8 fold | 482 nm and 570 nm | 5 | 10 |
